# Read-outs that look alike come from different tables or passages of the source.
# Experiments:
# Jurkat = assay: Antiproliferative assay (resazurin, 72 h); type: cell-based, human; settings: Homo sapiens, Jurkat, mean ± SE, 72 h
# Procedure: (§1) Colon adenocarcinoma (HT-29) and T-cell leukemia (Jurkat) cells were grown in RPMI-1640 medium (Gibco, Milano, Italy). Promyelocytic leukemia cells (HL-60), non-small cell lung carcinoma (A549), cervix carcinoma (HeLa) and breast adenocarcinoma (MDA-MB-231) cells were grown in DMEM medium (Gibco, Milano, Italy). Both media were supplemented with 115 units/mL of penicillin G (Gibco, Milano, Italy), 115 μg/mL of streptomycin (Invitrogen, Milano, Italy) and 10% fetal bovine serum (Invitrogen, Milano, Italy). All the cell lines used were purchased from the American Type Culture Collection (ATCC, Manassas, VA, USA). Stock solutions (10 mM) of the compounds were obtained by dissolving them in DMSO.
# (§2) The cells were seeded in 96-well plates at the appropriate density for each cell line. After 24 h, the cells were treated by performing serial 5-fold dilutions of the tested compounds starting from a concentration of 10 μM. All experimental conditions were tested in triplicate for statistical analysis. The plates were incubated for 72 h at 37 °C in a humidified 5% CO2 atmosphere. At the end of the incubation period, 10 μL of 100 μg/mL resazurin solution was added to each well; then, the plate was re-incubated for 3–4 h. The fluorescence of the wells in each plate was monitored using a Spark 10 M spectrophotometer (Tecan Group Ltd., Mannedorf, Switzerland) with a 535 nm excitation wavelength and a 600 nm emission wavelength.
# A549 = assay: Antiproliferative assay (resazurin, 72 h); type: cell-based, human; settings: Homo sapiens
# Procedure: as §1, §2
# HT-29 = assay: Antiproliferative assay (resazurin, 72 h); type: cell-based, human; settings: Homo sapiens, HT-29, mean ± SE, 72 h
# Procedure: as §1, §2
# HeLa = assay: Antiproliferative assay (resazurin, 72 h); type: cell-based, human; settings: Homo sapiens, HeLa
# Procedure: as §1, §2
# MDA-MB-231 = assay: Antiproliferative assay (resazurin, 72 h); type: cell-based, human; settings: for IC50: Homo sapiens, MDA-MB-231
# Procedure: as §1, §2
# [1] = tested on: A549, MDA-MB-231, HeLa, HT-29 and Jurkat cancer cell lines; assay: Antiproliferative activity over the panel of cancer cell lines; type: cell-based, human; settings: for IC50: Homo sapiens
# Procedure: as §1, §2
# [2] = read-out: IC50 values (2-para-substituted phenyl derivatives)
# [3] = four of the five cell lines, read-out: IC50 values against four of the five cell lines
SMILES,IC50 (Jurkat; Table 1) [µM],"IC50 (A549; A549, Table 1, mean ± SE) [µM]",IC50 (HT-29; Table 1) [µM],"IC50 (HeLa; Table 1, mean ± SE) [µM]","IC50 (MDA-MB-231; Table 1, mean ± SE, 72 h) [µM]",melting point [°C],IC50 (Jurkat; Table 2) [µM],"IC50 (A549; A549, Table 2, mean ± SE) [µM]",IC50 (HT-29; Table 2) [µM],"IC50 (HeLa; Table 2, mean ± SE) [µM]","IC50 (MDA-MB-231; Table 2, mean ± SE, 72 h) [µM]",also measured
"COc1cc(Nc2cc(C)nc3nc(-c4ccc(F)cc4)nn23)cc(OC)c1OC [Compound 7a, 2-(4-Fluorophenyl)-5-methyl-N-(3,4,5-trimethoxyphenyl)-[1,2,4]triazolo [1,5-a]pyrimidin-7-amine]",3.57 ± 0.45,2.71 ± 0.25,> 10,3.76 ± 0.19,2.25 ± 0.19,253,–,–,–,–,–,"IC50 [1, 2]: < 2 µM"
"COc1cc(Nc2cc(C)nc3nc(-c4ccc(Cl)cc4)nn23)cc(OC)c1OC [Compound 7b, 2-(4-Chlorophenyl)-5-methyl-N-(3,4,5-trimethoxyphenyl)-[1,2,4]triazolo [1,5-a]pyrimidin-7-amine]",> 10,> 10,> 10,5.79 ± 0.42,> 10,260,–,–,–,–,–,"IC50 [1, 2]: < 2 µM"
"COc1cc(Nc2cc(C)nc3nc(-c4ccc(C)cc4)nn23)cc(OC)c1OC [Compound 7c, 5-Methyl-2-(p-tolyl)-N-(3,4,5-trimethoxyphenyl)-[1,2,4]triazolo [1,5-a]pyrimidin-7-amine]",4.23 ± 1.15,> 10,> 10,2.08 ± 0.19,2.6 ± 0.27,248,–,–,–,–,–,"IC50 [1, 2]: < 2 µM"
"COc1cc(Nc2cc(C)nc3nc(Nc4ccc(Cl)cc4)nn23)cc(OC)c1OC [Compound 7f, N2-(4-Chlorophenyl)-5-methyl-N7-(3,4,5-trimethoxyphenyl)-[1,2,4]triazolo [1,5-a]pyrimidine-2,7-diamine]",> 10,0.29 ± 0.03,0.32 ± 0.04,0.092 ± 0.01,0.47 ± 0.045,251,–,–,–,–,–,"IC50 [1, 3]: < 1 µM"
"COc1cc(Nc2cc(C)nc3nc(NCc4ccc(F)cc4)nn23)cc(OC)c1OC [Compound 7l, N^2-(4-Fluorobenzyl)-5-methyl-N^7-(3,4,5-trimethoxyphenyl)-[1,2,4]triazolo [1,5-a]pyrimidine-2,7-diamine]",4.68 ± 0.48,5.89 ± 0.48,1.14 ± 0.09,1.86 ± 0.13,0.061 ± 0.009,156 to 158,–,–,–,–,–,fold more potent than 7e (MDA-MB-231; MDA-MB-231 cells): 12 fold; fold less active than 7e ([1]; in four lines): 2-6 fold
"COc1cc(Nc2cc(C)nc3nc(NCc4cccc(Cl)c4)nn23)cc(OC)c1OC [Compound 7o, N^2-(3-Chlorobenzyl)-5-methyl-N^7-(3,4,5-trimethoxyphenyl)-[1,2,4]triazolo [1,5-a]pyrimidine-2,7-diamine]",4.72 ± 0.36,0.93 ± 0.11,0.79 ± 0.09,0.74 ± 0.08,0.06 ± 0.007,136 to 138,–,–,–,–,–,"fold increase in potency vs 7n (MDA-MB-231; MDA-MB-231 cells): 3 fold; IC50 [1, 3]: < 1 µM; fold reduction in activity vs 7n ([1]; four of the five cancer cell lines): 9-24 fold"
"COc1ccc(CNc2nc3nc(C)cc(Nc4cc(OC)c(OC)c(OC)c4)n3n2)cc1 [Compound 7s, N^2-(4-Methoxybenzyl)-5-methyl-N^7-(3,4,5-trimethoxyphenyl)-[1,2,4]triazolo [1,5-a]pyrimidine-2,7-diamine]",0.9 ± 0.09,0.81 ± 0.08,0.49 ± 0.06,0.22 ± 0.03,1.27 ± 0.12,182 to 184,–,–,–,–,–,"IC50 (MDA-MB-231): 1.3 µM; IC50 ([1]; MDA-MB-231, against four of the five cell lines (not MDA-MB-231), read-out: IC50 values, range): 0.217 to 0.9 µM; IC50 [1, 3]: < 1 µM; fold reduction in antiproliferative activity vs 7p ([1]; all five lines): 2–5 fold"
"COc1cc(Nc2cc(C)nc3nc(NCc4ccc(C(F)(F)F)cc4)nn23)cc(OC)c1OC [Compound 7w, 5-Methyl-N^2-(4-(trifluoromethyl)benzyl)-N^7-(3,4,5-trimethoxyphenyl)-[1,2,4]triazolo [1,5-a]pyrimidine-2,7-diamine]",0.96 ± 0.06,1.28 ± 0.13,0.59 ± 0.26,0.52 ± 0.02,0.56 ± 0.03,174 to 176,–,–,–,–,–,"IC50 [1, 3]: < 1 µM"

# Further lines, with some results ahead:
IC50 (Jurkat; Table 1) [µM],"IC50 (A549; A549, Table 1, mean ± SE) [µM]",IC50 (HT-29; Table 1) [µM],"IC50 (HeLa; Table 1, mean ± SE) [µM]","IC50 (MDA-MB-231; Table 1, mean ± SE, 72 h) [µM]",melting point [°C],IC50 (Jurkat; Table 2) [µM],"IC50 (A549; A549, Table 2, mean ± SE) [µM]",IC50 (HT-29; Table 2) [µM],"IC50 (HeLa; Table 2, mean ± SE) [µM]","IC50 (MDA-MB-231; Table 2, mean ± SE, 72 h) [µM]",SMILES,also measured
–,–,–,–,–,178 to 180,0.29 ± 0.06,0.3 ± 0.06,0.22 ± 0.04,0.19 ± 0.06,0.8 ± 0.26,"Cc1ccc(CNc2nc3nc(C)cc(Nc4ccc(F)c(Cl)c4)n3n2)cc1 [Compound 8d, N^7-(3-Chloro-4-fluorophenyl)-N^2-(4-methylbenzyl)-5-methyl-[1,2,4]triazolo [1,5-a]pyrimidine-2,7-diamine]",fold reduction in activity vs 7p ([1]; all cell lines): 1.5–3 fold
–,–,–,–,–,166 to 168,0.95 ± 0.12,2.36 ± 0.34,1.38 ± 0.06,0.72 ± 0.34,2.04 ± 1.03,"Cc1cc(Nc2ccc(Cl)c(Cl)c2)n2nc(NCc3ccc4c(c3)OCO4)nc2n1 [Compound 8k, N^2-(Benzo[d][1,3]dioxol-5-ylmethyl)-N^7-(3,4-dichlorophenyl)-5-methyl-[1,2,4]triazolo [1,5-a]pyrimidine-2,7-diamine]",–
–,–,–,–,–,150 to 152,1.18 ± 0.11,2.32 ± 0.23,2.24 ± 0.12,1.28 ± 0.3,3.99 ± 0.06,"Cc1cc(Nc2cccc(Br)c2)n2nc(NCc3ccc4c(c3)OCO4)nc2n1 [Compound 8m, N^2-(Benzo[d][1,3]dioxol-5-ylmethyl)-N^7-(3-bromophenyl)-5-methyl-[1,2,4]triazolo [1,5-a]pyrimidine-2,7-diamine]",–
–,–,–,–,–,158 to 160,1.6 ± 0.29,3.27 ± 0.57,5.18 ± 0.27,3.64 ± 1.01,6.13 ± 1.46,"Cc1cc(Nc2ccc(C(F)(F)F)cc2)n2nc(NCc3ccc4c(c3)OCO4)nc2n1 [Compound 8n, N^2-(Benzo[d][1,3]dioxol-5-ylmethyl)-N^7-(4-trifluoromethylphenyl)-5-methyl-[1,2,4]triazolo [1,5-a]pyrimidine-2,7-diamine]",–
–,–,–,–,–,180 to 182,7.6 ± 0.06,6.26 ± 2.02,7.13 ± 0.87,7.15 ± 0.6,9.82 ± 0.86,"Cc1cc(Nc2cccc(C(F)(F)F)c2)n2nc(NCc3ccc4c(c3)OCO4)nc2n1 [Compound 8o, N^2-(Benzo[d][1,3]dioxol-5-ylmethyl)-N^7-(3-trifluoromethylphenyl)-5-methyl-[1,2,4]triazolo [1,5-a]pyrimidine-2,7-diamine]",–
–,–,–,–,–,165 to 168,2.38 ± 0.18,1.78 ± 0.51,2.08 ± 0.14,1.6 ± 0.07,3.09 ± 0.57,"C#Cc1cccc(Nc2cc(C)nc3nc(NCc4ccc5c(c4)OCO5)nn23)c1 [Compound 8p, N^2-(Benzo[d][1,3]dioxol-5-ylmethyl)-N^7-(3-ethynylphenyl)-5-methyl-[1,2,4]triazolo [1,5-a]pyrimidine-2,7-diamine]",–
